Assay results from publication PMC9851200, “Multiparameter phenotypic screening for endogenous TFEB and TFE3 translocation identifies novel chemical series modulating lysosome function” (Autophagy, 2022).
Read-outs that look alike come from different tables or passages of the source.

Key:
Conditions in all cases: PKIS2 primary screening
endogenous TFEB = test: TFEB nuclear translocation, immunocytochemistry high-content imaging; assay type: cell-based
endogenous TFE3 = test: TFE3 nuclear translocation, immunocytochemistry high-content imaging; assay type: cell-based
SH-SY5Y cells [1] = test system: SH-SY5Y cells; note: reference of the scale not given here
SH-SY5Y cells [2] = test: AK (adenylate kinase) release ToxiLight cytotoxicity assay; note: reference of the scale not given here
SH-SY5Y cells [3] = test: Nuclear count from microscopy images (cellular growth and toxicity); note: reference of the scale not given here

SMILES	TFEB % (endogenous TFEB)	TFE3 % (endogenous TFE3)	DQ Intensity (SH-SY5Y cells [1])	DQ Spot (SH-SY5Y cells [1])	AK (SH-SY5Y cells [2])	Nuclear Count (SH-SY5Y cells [3])	DQ Intensity (SH-SY5Y cells [1]; DQ Red BSA intensity)	DQ Spot (SH-SY5Y cells [1]; DQ Red BSA spot count)
Cc1ccc(NC(=O)Nc2ccc(Cl)c(C(F)(F)F)c2)cc1-c1ccc(C(=O)Nc2ccncc2)cc1 [UNC10225359A]	9.28%	18.34%	70.67	82.92	88.88	100.74	–	–
Oc1ccc2ncnc(Nc3ccc(OCc4ccccc4)cc3)c2c1 [UNC10225360A]	5.47%	13.64%	–	–	98.47	101.58	120.31	114.21
CC(C)(C)n1cnc2c(N)ncnc21 [UNC10225362A]	5.16%	7.46%	122.93	124.24	102.90	45.84	–	–
CC(C)(C)c1ccc(-n2cnc3c(N)ncnc32)cc1 [UNC10225367A]	8.78%	12.53%	128.98	104.53	79.86	71.05	–	–
Nc1ncc(-c2cccnc2)c2scc(-c3ccc4c(c3)CCN4C(=O)Cc3ccccc3)c12 [UNC10225369A]	3.58%	19.63%	–	–	64.72	102.35	84.54	86.78
CCn1cnc2c(NCc3ccccc3)ncnc21 [UNC10225370A]	4.85%	13.91%	98.37	103.57	79.45	102.90	–	–
COc1cc2ncn(-c3cc(OCC4CCCO4)c(C(N)=O)s3)c2cc1OC (stereo not drawn) [UNC10225372A]	6.13%	10.50%	86.61	87.29	162.91	102.24	–	–
CN1CCN(CCCNc2nccc(-c3c(-c4ccc(F)cc4)nn4cc(C(F)(F)F)ccc34)n2)CC1 [UNC10225376A]	5.73%	16.03%	120.10	102.44	108.97	97.99	–	–
Cl.c1ccc(Cn2cnc3cc(Nc4ncnc5ccccc45)ccc32)cc1 [UNC10225378A]	2.97%	16.85%	–	–	86.98	84.68	110.75	119.25
NS(=O)(=O)c1cccc(-c2ccc3nccc(-c4cccc(S(N)(=O)=O)c4)c3c2)c1 [UNC10225379A]	4.73%	17.04%	–	–	131.37	79.09	88.37	88.03
Fc1ccc(-c2ncn(CCCN3CCOCC3)c2-c2ccccn2)cc1 [UNC10225382A]	3.28%	18.86%	–	–	83.54	93.57	121.86	115.12
COc1cc2ncn(-c3cc(OCc4ccncc4Br)c(C(N)=O)s3)c2cc1OC [UNC10225386A]	6.47%	3.25%	93.85	100.07	64.35	97.54	–	–
Cc1ccc(NC(=O)Nc2ccc(Cl)cc2)cc1-c1ccc(C(=O)Nc2ccncc2)cc1 [UNC10225388A]	7.90%	28.63%	98.78	97.95	83.48	82.28	–	–
CCCCCc1nc2c(N)ncnc2n1CCCCC [UNC10225389A]	4.57%	10.63%	103.02	109.08	96.98	110.88	–	–
CCn1c(-c2nonc2N)nc2c(C#CC(C)(C)O)ncc(OCCCCN)c21.O=C(O)C(F)(F)F.O=C(O)C(F)(F)F [UNC10225393A]	2.26%	10.89%	115.98	109.86	69.12	121.84	–	–
Cc1ccc(NC(=O)Nc2ccccc2F)cc1-c1ccc(C(=O)Nc2ccncc2)cc1 [UNC10225398A]	7.18%	17.53%	90.99	98.29	135.60	104.03	–	–
NS(=O)(=O)c1cccc(-c2ccc3ncc(N4CCOCC4)nc3c2)c1 [UNC10225400A]	4.14%	6.51%	–	–	95.42	118.72	83.02	88.90
Cc1c(Cn2c(C)nn3c(=O)cc(N4CCO[C@H](C)C4)nc23)cccc1C(F)(F)F [UNC10225403A]	3.43%	10.58%	146.49	116.83	91.29	94.79	–	–
CN1C(=O)C(Nc2ccc(Cl)c(C(=O)O)c2)=C(c2ccc(Cl)cc2)C1=O [UNC10225406A]	3.59%	10.12%	–	–	75.31	91.26	120.55	105.90
CCn1c(-c2ccccc2)nc2cnccc21 [UNC10225407A]	8.26%	8.88%	107.17	104.42	88.86	99.61	–	–
Nc1ncnc2c1ncn2-c1cccc2ccccc12 [UNC10225410A]	7.46%	8.71%	80.92	97.35	106.56	88.30	–	–
COc1ccc(-n2cnc3c(N)ncnc32)cc1 [UNC10225413A]	5.09%	13.51%	106.51	108.81	68.21	102.02	–	–
Cc1cn2c(=O)cc(N3CCOCC3)nc2n1Cc1cccc(Cl)c1Cl [UNC10225415A]	6.30%	10.27%	62.82	98.81	43.75	117.08	–	–
CSc1nn2c(=O)cc(N3CCOCC3)nc2n1Cc1cccc(C(F)(F)F)c1C [UNC10225417A]	3.46%	6.63%	90.90	96.76	90.24	112.74	–	–
Fc1ccc(-c2nc[nH]c2-c2ccncc2)cc1 [UNC10225418A]	7.46%	16.61%	–	–	94.96	56.56	103.88	114.99
Cl.Cl.Cl.Fc1ccc(-c2ncn(C3CCNCC3)c2-c2ccnc(Nc3ccccc3)n2)cc1 [UNC10225420A]	8.15%	15.52%	95.71	100.38	105.24	78.56	–	–
